The text below walks through data of patent US12533350B2, “Use of melanocortin-1 receptor agonist” (TANABE PHARMA CORPORATION, priority 2022, dated 2026).

The subject of experiment [1] is dermal fibroblasts from SSc patients. The experiment can be described thus: TGF-β-induced human fibroblast activation, SSc patients. Type of experiment: cell-based. The note with it: concentration of 1000 nmol/L; TGF-β 10 ng/mL, 24 hours. An excerpt:
Full-thickness skin biopsies were obtained from clinically involved skin of patients affected by dcSSc, who were recruited from the Systemic sclerosis clinic within the Leeds Institute of Rheumatic and Musculoskeletal Medicine (UK). Control skin samples were from healthy donors. All patients with dcSSc and healthy donors provided written informed consent through the stratification for risk of progression in systemic sclerosis (STRIKE SSC), which had been approved by the North-East Research Ethic committee. Patients with SSc fulfilled the 2013 ACR/EULAR classification criteria for SSc and were classified as having dcSSc according to the LeRoy and Medsger criteria.
Dermal fibroblasts were isolated from the skin biopsy samples of healthy donors and SSc patients. […]
Total RNA was extracted using the Zymo quick RNA mini prep kit according to manufacturer's instructions (Zymo Research Corporation). […] Quantitative RT-PCR was performed in triplicates using SYBR Green RT-PCR Mastermix Kit (Thermo Fisher Scientific) and the ABI PRISM 7500 Fast Real Time PCR System (Applied Biosystems). […]
FIGS. 5(A)-5(B) show the effect of Compound A on human fibroblast activation. […] Each bar represents the mean±SEM of the measured values from three wells. […]

In experiment [2] the test system is serum proteins in BLM-induced SSc model. The conditions noted are these: Compound A 10 mg/kg. The procedure:
Serum samples were obtained from mice of the BLM-induced SSc model (therapeutic evaluation). Samples from the saline_vehicle (control group without disease), BLM_vehicle (control group with disease), BLM_Compound A (10 mg/kg), and BLM_imatinib (150 mg/kg) groups were used for analysis. Using a Luminex assay (R&D systems), 110 proteins were investigated (supplemental Table s1). Proteins satisfying any of the following criteria were analyzed: i) all samples were adequately measured within the quantitative range; ii) more than half of the samples in one or more groups were quantified, although some samples were out of the quantitative range.
Using serum samples of mice to which 10 mg/kg of Compound A and 150 mg/kg of imatinib were administered, serum protein profiling was carried out in a BLM-induced SSc model (treatment model). Using a Luminex assay, 110 kinds of proteins were investigated.

A further experiment concerns the target MC1R (Homo sapiens, UniProt Q01726). The note with it: described in WO 2020/138481; co-crystal with phosphoric acid; cited from earlier work.

Structures are written as SMILES.

MC1R, sequence (Q01726 whole entry, species assumed): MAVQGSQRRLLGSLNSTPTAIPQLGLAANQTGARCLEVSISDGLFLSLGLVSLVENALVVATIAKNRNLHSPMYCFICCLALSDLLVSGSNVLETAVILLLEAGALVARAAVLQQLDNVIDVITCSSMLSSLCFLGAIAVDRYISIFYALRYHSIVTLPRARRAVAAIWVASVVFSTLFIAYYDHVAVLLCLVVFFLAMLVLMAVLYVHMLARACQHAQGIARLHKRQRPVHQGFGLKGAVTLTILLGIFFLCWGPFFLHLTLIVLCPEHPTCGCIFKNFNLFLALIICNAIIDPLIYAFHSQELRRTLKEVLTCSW

In the case of `COC[C@H]1CN(C(=O)[C@]2(F)CN(C3CCCC3)C[C@H]2c2ccc(OC)cc2)C[C@@H]1c1ccc(C(F)(F)F)cc1N1CCC(C(=O)O)CC1` [Compound A, 1-{2-[(3S,4R)-1-{[(3R,4R)-1-cyclopentyl-3-fluoro-4-(4-methoxyphenyl)pyrrolidin-3-yl]carbonyl}-4-(methoxymethyl)pyrrolidin-3-yl]-5-(trifluoromethyl)phenyl}piperidine-4-carboxylic acid], in experiment [1], the “TGF-β-induced increase in αSMA mRNA expression” value is on record as “suppressed”. Also, in experiment [2], the “BLM-induced elevation of serum GDF-15” value is reported as “significantly suppressed”, the “BLM-induced elevation of serum MMP-2” value is given as “significantly suppressed”, the “BLM-induced elevation of serum MMP-3” value is given as “significantly suppressed” and the “BLM-induced elevation of serum P-selectin” value is “significantly suppressed”. In experiment [2], the “BLM-induced elevation of serum S100A9” value is “significantly suppressed”, the “BLM-induced elevation of serum TIMP-1” value is on record as “significantly suppressed”, the “BLM-induced elevation of serum TNFRI” value is reported as “significantly suppressed” and the “BLM-induced elevation of serum TNFRII” value was “significantly suppressed”. In experiment [2], the “BLM-induced elevation of serum adiponectin” value is “significantly suppressed”, the “BLM-induced elevation of serum cystatin C” value is listed as “significantly suppressed” and the “BLM-induced elevation of serum osteoprotegerin” value was “significantly suppressed”. In addition, the “MCR-activating action, especially MC1R-activating action” value on MC1R is “excellent MCR-activating action”.
